Structures can show the parent of a compound that is named as a salt.
Experiment: Weight loss rate at 60° C. for 2 weeks (sublimation)
Format: physicochemical
Conditions: drying and sublimation
Experimental: Dimethyl fumarate has a property of being lost by sublimation depending on the storage temperature. Accordingly, in order to confirm the degree of weight loss according to the coating drying temperature, the degree of weight loss was repeatedly evaluated for 2 weeks at a temperature of 60° C. for dimethyl fumarate and a mixture thereof. At this time, the mixture of dimethyl fumarate was a mixture in which dimethyl fumarate and other pharmaceutically acceptable additives were mixed.

## COC(=O)/C=C/C(=O)OC [dimethyl fumarate, Dimethyl fumarate]
  Weight loss in words: continued to lose weight
